Experiments:
NIH 3T3 cells [1] = test: Transfection of NIH 3T3 cells, luciferase assay; format: cell-based; conditions: for luciferase expression: FIG. 4, vs dimyristoyl analogs with the same DNA-binding domain
Procedure: (§1) Cell Culture. CHO cells (ATCC, Rockville, Md.) were cultured in 75 cm^2 cell culture flasks with HAMS F12 media containing 10% bovine calf serum. NIH 3T3 cells were grown in Dulbecco's modified Eagle's medium with 10% fetal calf serum. The cells were maintained at 37° C. in a 5% CO2 environment. Twenty-four hours prior to transfection, cells were split into 24 well plates at 60% confluence.
(§2) Transfection of CHO and NIH 3T3 Cells. Liposomal suspensions of the polyamines were diluted with Dulbecco's modified essential media (serum free) to obtain the desired concentration. The suspensions were vortex mixed followed by addition of an appropriate quantity of DNA to yield lipoplex preparations at the desired N/P ratio. […] Immediately prior to transfection, the cells were prepared by aspiration of the growth media. The lipoplex preparation was added to the cells (200 μL, 1 μg DNA/well). After incubation for 2 hours, the lipoplex solution was aspirated and replaced with growth media (500 μL),
(§3) Luciferase Assay. Cells were lysed 24 hours after lipoplex administration by adding 200 μL lysis buffer. Luciferase activity was assayed using the Enhanced Luciferase Assay Kit and a Moonlight 2010 luminometer (Pharmingen, San Diego, Calif.). Luciferase activity was measured as Relative Light Units (RLUs) from an aliquot of the cell lysate over a 10 sec. period. A luciferase standard curve was produced using serial dilutions of purified firefly luciferase (Pharmingen, San Diego, Calif.). Using the standard curve, relative light units are converted to μg of luciferase per μL of sample assayed, and expressed as μg luciferase per 60,000 cells. To ensure luminometer consistency, the instrument is calibrated with a luminometer light standard containing ^14C-toluene (Pharmingen, San Diego, Calif.).

CHO cells [2] = test: Transfection of CHO cells, luciferase assay; format: cell-based; conditions: for luciferase expression: FIG. 3, vs dimyristoyl analogs with the same DNA-binding domain; for transfection activity compared with LipofectAMINE PLUS and TransFast: two cell lines (CHO, NIH-3T3), luciferase and GFP vector
Procedure: as §1, §2, §3

CHO cells [3] = test: GFP-annexin V flow cytometric assay in CHO cells; format: cell-based; conditions: for GFP expression: FIG. 5, polyamines vs dimyristoyl analogs with the same DNA-binding domain
Procedure: Cell Culture. CHO cells (ATCC, Rockville, Md.) were cultured in 75 cm^2 cell culture flasks with HAMS F12 media containing 10% bovine calf serum. […] The cells were maintained at 37° C. in a 5% CO2 environment. Twenty-four hours prior to transfection, cells were split into 24 well plates at 60% confluence.
Flow Cytometry. Cells transfected with the plasmid vector pNDeGFP were trypsinized 24 h after transfection and resuspended in Dulbecco's phosphate buffered saline (DPBS). The resuspended cells were incubated 30 min. in a solution (1:40 dilution of commercial stock) containing annexin V conjugated to biotin (CalTag, Burlingame, Calif.). After a second DPBS wash, the cells were resuspended 30 min. in a solution (1:400 dilution of commercial stock) of the Tri-color fluorophore conjugated to streptavidin (CalTag, Burlingame, Calif.). After a final DPBS wash, the cells were resuspended in 500 μL DPBS. The cells were then analyzed using a dual channel FACScan (Becton Dickinson, San Jose, Calif.) with a 15 mW, 488 nm argon laser.
Using standard techniques, FACScan gating was set with control cells that were prepared simultaneously with the transfected cells. […] GFP fluorescence was measured with a 530/30 band pass filter on channel FL1. The Tri-color fluorescence was measured with a 675 nm band pass filter on channel FL2. Transfection and mean expression were determined using the FL1 autofluorescence signal from control cells, compared to the transfected cell population.
To further determine the influence of the chemical linker on cytotoxicity, flow cytometry was used to measure cell viability. Using a GFP-annexin V flow cytometric assay, cytotoxicity was simultaneously evaluated in transfected and total cell populations.

pCMV.FOX.Luc-2 = test: Ethidium bromide displacement assay (DNA condensation); format: binding; conditions: polyamine:cholesterol liposomes, FIGS. 1A-C
Procedure: The assay set forth in FIGS. 1A-C is based on a decrease in fluorescence that occurs when ethidium bromide is displaced from DNA by adding cationic liposomes. The lipoplexes were formed by adding a DNA-ethidium bromide solution to a solution containing variable amounts of polyamine:cholesterol liposomes. The lipoplexes were then treated with an equal volume of either water or a TRIS buffered solution at various pHs. The resulting fluorescence was then measured to determine the relative concentration of intercalated ethidium bromide.
Ethidium Bromide Displacement Assay. Ethidium bromide (153 μL of a 0.01% solution) was added to 96 μg of pCMV.FOX.Luc-2. This DNA-ethidium bromide solution was diluted to a final volume of 6 mL. Different concentrations of the polyamine liposomes were added to each well of a 96 well microplate, to which 50 μL of the DNA-ethidium bromide solution was added to obtain a final volume of 100 μL. After 5 min. the lipoplexes were treated with 100 μL of water or buffer and gently shaken. The resulting fluorescence at 250 nm excitation and 610 nm emission was measured using a SpectraMax XS microplate fluorometer (Molecular Devices, Oregon).

NIH 3T3 cells [4] = test: GFP-annexin V flow cytometric assay in NIH 3T3 cells; format: cell-based; conditions: FIG. 6, polyamines vs dimyristoyl analogs with the same DNA-binding domain
Procedure: as §1, §2
Flow Cytometry. […] The cells were then analyzed using a dual channel FACScan (Becton Dickinson, San Jose, Calif.) with a 15 mW, 488 nm argon laser.
Using standard techniques, FACScan gating was set with control cells that were prepared simultaneously with the transfected cells. […] GFP fluorescence was measured with a 530/30 band pass filter on channel FL1. The Tri-color fluorescence was measured with a 675 nm band pass filter on […]. Transfection and mean expression were determined using the FL1 autofluorescence signal from control cells, compared to the transfected cell population.
Actinomycin-D (Sigma, St. Louis, Mo.) was used to treat non-transfected cells 24 hours prior to the assay to induce apoptosis. […] Non-treated cells were analyzed to establish baseline cytotoxicity and background auto-fluorescence. Each condition was transfected in triplicate and ten thousand cells were counted and simultaneously analyzed for GFP (transfection and expression) and Tri-color (annexin V) fluorescence. […]

Structure (SMILES) | transfection activity among the polyamines (NIH 3T3 cells [1]) | luciferase expression (NIH 3T3 cells [1]) | luciferase expression (CHO cells [2]; CHO cells) | transfection activity compared with LipofectAMINE PLUS and TransFast (CHO cells [2]) | GFP expression (CHO cells [3]) | DNA condensation (pCMV.FOX.Luc-2) | GFP expression (NIH 3T3 cells [4]) | transfection activity among the polyamines (CHO cells [2]; CHO cells) | population of cells expressing GFP (GFP positive, Annexin V negative) (CHO cells [3]; FIG. 5 black bars)
CCCCCCCCCCCCCC(=O)OCC(COC(=O)CCCCCCCCCCCCC)(COC(=O)CCNCCN(C)C)COC(=O)CCNCCN(C)C [polyamine 5] | superior to the other polyamines | – | – | – | – | – | – | – | –
CCCCCCCC/C=C\CCCCCCCC(=O)OCC(COC(=O)CCCCCCC/C=C\CCCCCCCC)(COC(=O)CCNCCN(C)C)COC(=O)CCNCCN(C)C [polyamine 8] | superior to the other polyamines | higher levels | higher levels | roughly comparable to LipofectAMINE PLUS and TransFast | higher levels | condensed DNA with efficiency | higher levels | – | –
CCCCCCCC/C=C\CCCCCCCC(=O)OCC(COC(=O)CCCCCCC/C=C\CCCCCCCC)(COC(=O)CCNCCCN(C)C)COC(=O)CCNCCCN(C)C [polyamine 9] | – | higher levels | higher levels | roughly comparable to LipofectAMINE PLUS and TransFast | higher levels | condensed DNA with efficiency | higher levels | most active analog | largest population of cells expressing GFP with extremely low cytotoxicity
CCCCCCCC/C=C\CCCCCCCC(=O)OCC(COC(=O)CCCCCCC/C=C\CCCCCCCC)(COC(=O)CCNCCCCN(C)C)COC(=O)CCNCCCCN(C)C [polyamine 10] | – | higher levels | higher levels | – | higher levels | condensed DNA with efficiency | higher levels | – | –

— patent US20040077888A1, “Polyamine-mediated transfection” (The Regents of the University of California, priority 2002, published 2004)
